Eleven compounds from publication PMC8305768, “Design, Synthesis and Antiparasitic Evaluation of Click Phospholipids” (Molecules, 2021) can be followed below.

Counter-ions that a name gives are not always drawn.

Data set [1] has as its target T1, CYP2C9 (Homo sapiens, UniProt P11712).
T1 construct: purchased Corning Inc; host or cells: baculovirus-infected insect cells
The experiment in a line: Cytochrome P450 inhibition assay (P450-Glo) CYP2C9. The class given is in vitro ADME. Conditions: compounds 10 μM; miltefosine 10 μM or 1 μM. An excerpt:
(§1) Cytochrome (CYP) P450 inhibition assay: These assays made use of microsomal preparations of CYP450 (1A2, 2C9, 2C19, 2D6 and 3A4) from baculovirus-infected insect cells (Corning Inc., Corning, NY, USA) and cytochrome c reductase (and cytochrome b5 for CYP450 3A4). For detection of CYP450 activity, the luminescence-based P450-Glo (Promega Corp., Madison, WI, USA) assay system was used that contained a luminogenic CYP450 substrate, lyophilized luciferin detection reagent and reconstitution buffer. The substrates were luciferin derivatives of CYP450-specific substrates that produce (4S)-4,5-dihydro-2-(6-hydroxybenzothiazolyl)-4-thiazolecarboxylic acid (D-luciferin) after cleavage by CYP450 (CYP450 3A4, luciferin-IPA; CYP450 2C19, luciferin-H EGE; CYP450 2C9, luciferin-H; CYP450 2D6, luciferin-ME EGE; CYP450 1A2, luciferin-1A2). CYP450 reactions were initiated by addition of the NADPH regeneration system to the enzyme–substrate mixture with the luciferin detection reagent stopping the reaction and the D-luciferin being converted to oxyluciferin under the production of light being proportional to the CYP450 activity. The CYP450 assays were performed using the Tecan Fluent liquid-handling automation platform (Tecan Group Ltd., Mannedorf, Switzerland) in the 384-well assay format. Compounds were added into an empty 384-well plate (100 nL/well in 1% v/v DMSO) using the Echo 550 Liquid Handler followed by the addition of 5 μL/well of the CYP450/substrate mixture and incubation for 30 min at 37 °C, after which the reaction was initiated by the addition of the 5 μL/well NADPH regeneration system. After a further 30-min incubation at 37 °C, the CYP450 reaction was stopped and the luciferase reaction was simultaneously initiated by addition of 10 μL/well of luciferin detection reagent, followed by an additional 30-min incubation at 37 °C. The luminescence signal was detected using an Infinite M1000 PRO plate reader (Tecan Group Ltd., Mannedorf, Switzerland). The NCs yielded 0% inhibition (1% v/v DMSO) and standard CYP450 specific inhibitors were used as positive controls, yielding 100% inhibition (CYP450 1A2, alpha-naphthoflavone; CYP450 2C9, sulfaphenazole; CYP450 2C19, troglitazone; CYP450 2D6, quinidine; CYP450 3A4, ketoconazole).
(§2) Data analysis: The screening data were obtained in triplicate and analysed using ActivityBase (IDBS, Guildford, UK), and outlier elimination in the control wells was performed using the 3-sigma method. Unless stated, dose–response experiments were performed in the 11-point format with the IC50 value, Hill slope, minimum signal and maximum signal for each dose–response curve obtained using a four-parameter logistic fit in the XE module of ActivityBase (IDBS).

Data set [2] addresses T2, CYP2D6 (Homo sapiens, UniProt P10635).
T2 construct: purchased Corning Inc; host or cells: baculovirus-infected insect cells
The experiment in a line: Cytochrome P450 inhibition assay (P450-Glo) CYP2D6. Conditions: compounds 10 μM; miltefosine 10 μM or 1 μM. It is filed as in vitro ADME.
From the text: as §1, §2

The target of data set [3] is T3, CYP3A4 (Homo sapiens, UniProt P08684).
T3 construct: purchased Corning Inc; host or cells: baculovirus-infected insect cells
Nature of the data set: Cytochrome P450 inhibition assay (P450-Glo) CYP3A4. The class given is in vitro ADME. Conditions: compounds 10 μM; miltefosine 10 μM or 1 μM.
From the text: as §1, §2

Data set [4] is described as follows: Early ADMET profiling panel, overall. The following applies: 10 μM; except for toxicity against THP1 macrophages.
From the text: Early ADMET profiling: The early ADMET profiling of the new derivatives involved a group of assays widely used in drug development as part of the preclinical in vitro toxicity studies. In particular our panel included hERG inhibition, five cytochromes P450 (CYP1A2, CYP2C9, CYP2C19, CYP2D6 and CYP3A4), two cell-lines (A549, epithelial human lung adenocarcinoma, WI38 and foetal lung fibroblasts), Aurora B kinase and mitochondrial toxicity, in addition to the parasite relevant toxicity against THP1 macrophages. The compounds were tested at 10 μΜ, whilst the miltefosine control was tested at 10 μΜ or 1 μM. The toxicity of the new click phospholipids is depicted in Figure 3 in a traffic light format (from red through yellow to green for decreasing ADMET liabilities).
Cytotoxicity assay: A549 cells and WI-38 cells were grown on surface-modified T175 cell culture flasks in Dulbecco’s modified Eagle medium with 10% foetal calf serum (FCS), streptomycin (100 μg/mL) and 100 U/mL penicillin G. At about 80% confluency, cells were washed, trypsinized, resuspended and counted in RPMI-1640 medium before seeding (in triplicate) into white 384-well microtiter plates (20 μL) at 500 cells/well and incubated at 37 °C in the presence of 5% CO2 for 24 h. A total of 20 μL/well of CellTiter-Glo (CTG) reagent (Promega Corp., Madison, WI, USA) was added to each well, and plates were read using an EnVision Multilabel 2103 Reader after a 10-min incubation in the dark. Dose–response assays for compounds made use of 11-point curves. Each test compound (200 nL of 10 mM top concentration in 100% v/v DMSO) was added to cells seeded in polystyrene 384-well cell culture microtiter plates using the Echo 550 Liquid Handler and read after 24 h of incubation at 37 °C in the presence of 5% CO2 using CTG as described above. The compounds/positive control (paclitaxel with final concentration of 10 μM and 1% v/v DMSO) and no compound (final 1% v/v DMSO) were added into the 384-well plates (200 nL/well; 1% v/v DMSO) using the Echo 550 Liquid Handler. The raw luminescence signal of each sample was converted into the percentage of cell growth.
as §1, with “After a further 30-min incubation at 37 °C, the CYP450 reaction was stopped and the luciferase reaction was simultaneously initiated by addition of 10 μL/well of luciferin detection reagent, followed by an additional 30-min incubation at 37 °C. The luminescence signal was detected using an Infinite M1000 PRO plate reader (Tecan Group Ltd., Mannedorf, Switzerland). The NCs yielded 0% inhibition (1% v/v DMSO) and standard CYP450 specific inhibitors were used as positive controls, yielding 100% inhibition (CYP450 1A2, alpha-naphthoflavone; CYP450 2C9, sulfaphenazole; CYP450 2C19, troglitazone; CYP450 2D6, quinidine; CYP450 3A4, ketoconazole).” left out

T1 sequence (P11712 whole entry): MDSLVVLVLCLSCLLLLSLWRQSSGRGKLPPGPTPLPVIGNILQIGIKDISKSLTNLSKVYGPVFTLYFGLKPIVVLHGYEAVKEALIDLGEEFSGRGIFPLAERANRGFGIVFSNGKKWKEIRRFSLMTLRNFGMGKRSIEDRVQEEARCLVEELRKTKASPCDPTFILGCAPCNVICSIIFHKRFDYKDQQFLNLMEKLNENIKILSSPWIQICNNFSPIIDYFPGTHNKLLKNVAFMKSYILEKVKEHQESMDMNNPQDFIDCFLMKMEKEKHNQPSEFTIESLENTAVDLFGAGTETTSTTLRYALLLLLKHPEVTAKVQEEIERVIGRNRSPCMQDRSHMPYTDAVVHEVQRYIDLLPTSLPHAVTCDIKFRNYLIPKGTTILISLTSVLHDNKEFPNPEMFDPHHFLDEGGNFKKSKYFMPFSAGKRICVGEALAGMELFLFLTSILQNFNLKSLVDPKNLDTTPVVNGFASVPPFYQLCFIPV
T2 sequence (P10635 whole entry): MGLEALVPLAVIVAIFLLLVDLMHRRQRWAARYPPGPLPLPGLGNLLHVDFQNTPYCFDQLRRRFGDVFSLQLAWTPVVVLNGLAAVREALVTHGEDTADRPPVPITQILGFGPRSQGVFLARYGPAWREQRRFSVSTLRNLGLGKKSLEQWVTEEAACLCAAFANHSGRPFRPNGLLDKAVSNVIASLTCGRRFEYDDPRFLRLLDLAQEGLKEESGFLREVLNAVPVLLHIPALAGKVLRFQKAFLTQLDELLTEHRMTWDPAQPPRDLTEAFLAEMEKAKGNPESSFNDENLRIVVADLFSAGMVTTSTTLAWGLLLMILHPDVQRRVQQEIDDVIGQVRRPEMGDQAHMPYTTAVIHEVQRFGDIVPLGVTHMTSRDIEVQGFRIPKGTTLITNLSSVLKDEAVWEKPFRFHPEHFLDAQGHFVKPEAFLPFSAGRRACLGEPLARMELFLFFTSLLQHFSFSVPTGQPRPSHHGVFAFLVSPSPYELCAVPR
T3 sequence (P08684 2-503 limits assumed): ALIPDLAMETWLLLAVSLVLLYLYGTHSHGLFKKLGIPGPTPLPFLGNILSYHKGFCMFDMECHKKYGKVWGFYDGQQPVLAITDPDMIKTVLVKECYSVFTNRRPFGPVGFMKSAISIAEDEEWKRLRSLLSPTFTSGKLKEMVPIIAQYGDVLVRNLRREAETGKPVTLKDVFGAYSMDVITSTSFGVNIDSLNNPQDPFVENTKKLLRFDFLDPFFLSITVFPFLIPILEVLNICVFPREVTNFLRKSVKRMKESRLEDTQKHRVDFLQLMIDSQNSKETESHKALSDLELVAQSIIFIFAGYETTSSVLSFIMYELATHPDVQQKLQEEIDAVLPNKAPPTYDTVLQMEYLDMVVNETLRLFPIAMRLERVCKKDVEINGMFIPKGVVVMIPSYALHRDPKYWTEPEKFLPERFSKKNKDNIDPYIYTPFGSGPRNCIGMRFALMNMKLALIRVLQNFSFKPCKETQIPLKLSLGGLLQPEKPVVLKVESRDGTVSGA

Take `CCCCCc1cn(CCCCCCCCCCCOP(=O)([O-])OCC[N+](C)(C)C)nn1` [Compound 25, 11-(4-pentyl-1H-1,2,3-triazol-1-yl)undecyl (2-(trimethylammonio)ethyl) phosphate inner salt]: the “% inhibition ± SD at 10 μΜ CYP2C9” value in data set [1] is “–23.11%”. Moreover, in data set [2], the “% inhibition ± SD at 10 μΜ CYP2D6” value is on record as “–37.71%”. The “% inhibition ± SD at 10 μΜ CYP3A4” value in data set [3] was “–20.13%”. For the same compound, in data set [4], the “ADMET liabilities (overall panel)” value is listed as “no liabilities”.

On to `C[N+](C)(C)CCOP(=O)([O-])OCCCCCCCCCCCn1cc(CC2CCCC2)nn1` [Compound 28, 11-(4-(cyclopentylmethyl)-1H-1,2,3-triazol-1-yl)undecyl (2-(trimethylammo nio)ethyl) phosphate inner salt], for which the “% inhibition ± SD at 10 μΜ CYP2C9” value in data set [1] is reported as “–23.46%”. Also, in data set [2], the “% inhibition ± SD at 10 μΜ CYP2D6” value is on record as “–56.57%”. For the same compound, the “% inhibition ± SD at 10 μΜ CYP3A4” value in data set [3] is given as “–33.70%”. For the same compound, the “ADMET liabilities (overall panel)” value in data set [4] is “no liabilities”.

As for `C[N+](C)(C)CCOP(=O)([O-])OCCCCCCCCCCCn1cc(CC2CCCCC2)nn1` [Compound 29, 11-(4-(cyclohexylmethyl)-1H-1,2,3-triazol-1-yl)undecyl (2-(trimethylammonio)ethyl) phosphate inner salt], in data set [1], the “% inhibition ± SD at 10 μΜ CYP2C9” value is on record as “–22.63%”. The “% inhibition ± SD at 10 μΜ CYP2D6” value in data set [2] is “–46.97%”. Further, in data set [3], the “% inhibition ± SD at 10 μΜ CYP3A4” value is recorded as “–33.59%”. Moreover, the “ADMET liabilities (overall panel)” value in data set [4] is reported as “no liabilities”.

On to `C[N+](C)(C)CCOP(=O)([O-])OCCCCCn1cc(CCCCCCCCNC(=O)OCc2ccccc2)nn1` [Compound 31, 5-(4-(8-(((benzyloxy)carbonyl)amino)octyl)-1H-1,2,3-triazol-1-yl)pentyl (2-(trimethylammonio)ethyl) phosphate inner salt], for which the “% inhibition ± SD at 10 μΜ CYP2C9” value in data set [1] is listed as 8.95%. In addition, the “% inhibition ± SD at 10 μΜ CYP2D6” value in data set [2] is 11.06%. Besides, the “% inhibition ± SD at 10 μΜ CYP3A4” value in data set [3] was “–7.33%”. The “ADMET liabilities (overall panel)” value in data set [4] is “no liabilities”.

As to `C[N+](C)(C)CCCOP(=O)([O-])OCCCCCCCCCCCn1cc(CC2CCCCC2)nn1` [Compound 33, 11-(4-(cyclohexylmethyl)-1H-1,2,3-triazol-1-yl)undecyl (3-(trimethylammonio)propyl) phosphate inner salt], in data set [1], the “% inhibition ± SD at 10 μΜ CYP2C9” value is 19.72%. Also, the “% inhibition ± SD at 10 μΜ CYP2D6” value in data set [2] is given as 9.87±6.48%. The “% inhibition ± SD at 10 μΜ CYP3A4” value in data set [3] worked out at 7.61 ± 9.09%. Moreover, the “ADMET liabilities (overall panel)” value in data set [4] is reported as “no liabilities”.

Turning to `C[N+](C)(C)CCOP(=O)([O-])OCCCCCCCCCCCn1cc(CCCCCCCCC(=O)O)nn1` [Compound 34, 11-(4-(8-carboxyoctyl)-1H-1,2,3-triazol-1-yl)undecyl (2-(trimethylammonio)ethyl) phosphate inner salt], the “% inhibition ± SD at 10 μΜ CYP2C9” value in data set [1] was determined as 18.94%. Further, the “% inhibition ± SD at 10 μΜ CYP2D6” value in data set [2] is recorded as 23.08%. Also, the “% inhibition ± SD at 10 μΜ CYP3A4” value in data set [3] is on record as 19.27%. In addition, in data set [4], the “ADMET liabilities (overall panel)” value is on record as “no liabilities”.

Take `C[N+](C)(C)CCOP(=O)([O-])OCCCCCn1cc(CCCCCCCCN)nn1` [Compound 35, 5-(4-(8-aminooctyl)-1H-1,2,3-triazol-1-yl)pentyl (2-(trimethylammonio)ethyl) phosphate inner salt]: in data set [1], the “% inhibition ± SD at 10 μΜ CYP2C9” value was 2.57%. Besides, in data set [2], the “% inhibition ± SD at 10 μΜ CYP2D6” value was found to be 7.26%. For the same compound, the “% inhibition ± SD at 10 μΜ CYP3A4” value in data set [3] is “–8.64%”. In addition, the “ADMET liabilities (overall panel)” value in data set [4] is “no liabilities”.

Consider `CCCCCCCCc1noc(CCCCCOP(=O)([O-])OCC[N+](C)(C)C)n1` [Compound 53, 5-(3-octyl-1,2,4-oxadiazol-5-yl)pentyl (2-(trimethylammonio)ethyl) phosphate inner salt], for which the “% inhibition ± SD at 10 μΜ CYP2C9” value in data set [1] is 5.45%. Further, the “% inhibition ± SD at 10 μΜ CYP2D6” value in data set [2] is “–26.41%”. Besides, the “% inhibition ± SD at 10 μΜ CYP3A4” value in data set [3] is listed as “–12.40%”. Further, in data set [4], the “ADMET liabilities (overall panel)” value is on record as “no liabilities”.

Take `CCCCCCCCc1noc(CCCCCCCCCCOP(=O)([O-])OCC[N+](C)(C)C)n1` [Compound 54, 10-(3-octyl-1,2,4-oxadiazol-5-yl)decyl (2-(trimethylammonio)ethyl) phosphate inner salt]: the “% inhibition ± SD at 10 μΜ CYP2D6” value in data set [2] is given as 6.07%. Also, the “% inhibition ± SD at 10 μΜ CYP3A4” value in data set [3] was 13.88%.

In the case of `CCCCCCCc1nnc(CCCCCCCCCCOP(=O)([O-])OCC[N+](C)(C)C)o1` [Compound 65, 10-(5-heptyl-1,3,4-oxadiazol-2-yl)decyl (2-(trimethylammonio)ethyl) phosphate inner salt], the “% inhibition ± SD at 10 μΜ CYP2C9” value in data set [1] is listed as 28.32%. The “% inhibition ± SD at 10 μΜ CYP2D6” value in data set [2] is “–30.44%”. Moreover, the “% inhibition ± SD at 10 μΜ CYP3A4” value in data set [3] is listed as “–2.44%”. In addition, the “ADMET liabilities (overall panel)” value in data set [4] is on record as “no liabilities”.

Regarding `CCCCCCCCCCCCCCCCOP(=O)([O-])OCC[N+](C)(C)C` [Miltefosine, hexadecylphosphocholine, reference compound], the “% inhibition ± SD at 10 μΜ CYP2C9” value in data set [1] is on record as “–0.80%”. Besides, the “% inhibition ± SD at 10 μΜ CYP2D6” value in data set [2] worked out at 30.83%. In addition, the “% inhibition ± SD at 10 μΜ CYP3A4” value in data set [3] was determined as 8.39%.
